Measured values as given in patent US10093973B2, “Polymerase compositions and methods” (LIFE TECHNOLOGIES CORPORATION, priority 2009, dated 2018).

Tested on: 5′-[32P]-labeled templates or 5′-TAMRA-labeled templates
Test: Photostability assay (primer extension after 405 nm excitation radiation)
Format: biochemical
Settings: after 30 seconds of exposure at 50 W/cm2, 405 nm
Description: The photostability of an exemplary reference polymerase comprising a His-tagged version of Phi-29 polymerase (“HP1; see, e.g., U.S. Provisional Application No. 61/184,770, filed Jun. 5, 2009 for disclosure of HP1 sequence and purification) comprising the amino acid sequence of SEQ ID NO: 20, and an exemplary modified polymerase comprising the amino acid sequence of SEQ ID NO: 19 and further comprising the amino acid substitution D175A were characterized by measuring the amount of primer extension observed in each sample prior to and following exposure to excitation radiation at 405 nm Reactions (100 μL) containing 50 mM Tris, pH 7.5, 50 mM NaCl, 1 mM DTT, 2 mM MnCl2, 0.3% BSA, 10-200 nM polymerase and 100 nM nanoparticles (or premade polymerase-nanoparticle conjugates; see, e.g., U.S. Provisional Application No. 61/184,770 filed Jun. 5, 2009), and 100 nM 5′-[^32P]-labeled templates or 5′-TAMRA-labeled templates were prepared with and without the Oxygen Scavenging System (OSS). […] Polymerase activity was quantified as the % of extended primer (as compared to the total starting amount of primer), as measured by densitometric analysis. Phototoxicity is quantified by measuring the percent decrease in polymerase activity that occurs when samples are illuminated compared to non-illuminated samples. The photostability is quantified by subtracting the observed photosensitivity from 100.

In the case of “HP1: Phi-29 polymerase lacking exonuclease activity with N-terminal His-tag, linker, D12A and D66A mutations [reference compound]”, the “% activity retained” value is reported as “less than 40%”.
